Assay results taken from patent publication US11667675B2, “MASP inhibitory compounds and uses thereof” (Bayer Aktiengesellschaft, priority 2019, dated 2023).
Structures can show the parent of a compound that is named as a salt. Numbered stars: 1 amine (or outer) side, 2 acyl side, 3 side chain; on linkers, the order of the positions; unused ones are H or OH. Bridge positions count the residues as written; N and C are the ends. Square brackets hold non-standard residues; d marks the D form. Peptide text beside a SMILES is read from it. * marks the point of attachment. X1 = O=C(C1[C@H]2CCCC[C@H]2C[C@H]1C(=O)[*:2])[C@@H]1CCCN1[*:1]; Oic = O=C(O)[C@@H]1C[C@@H]2CCCC[C@@H]2N1; Pen = CC(C)(S)[C@H](N)C(=O)O; X2 = N[C@@H](CN*)C(=O)O; Sar = CNCC(=O)O

Columns and labels:
Human C3-[…] = assay: C3 deposition assay, human serum on mannan-coated plates; format: biochemical; details: average IC50, read-out: Human C3-DEPOSITION SERUM IC50
How it was run: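 Plates coated overnight at 4° C with mannan (10 μg/mL, pH 9.6), blocked with 1% BSA; serum C3 deposition detected colorimetrically at 450 nm, washes in TBS/0.05% Tween 20/5 mM CaCl2.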

rat MASP2 = biological target: T1, rat MASP2 (Rattus norvegicus, UniProt Q9JJS8); assay: Biochemical rat MASP2 assay (FRET substrate); details: average IC50; recombinant rat MASP2, FRET substrate
T1 construct: Ig-kappa secretion signal (N, cleaved yes); made in house; host or cells: HEK293 (ATCC No. CRL-1573)
T1 sequence (Q9JJS8 296-443): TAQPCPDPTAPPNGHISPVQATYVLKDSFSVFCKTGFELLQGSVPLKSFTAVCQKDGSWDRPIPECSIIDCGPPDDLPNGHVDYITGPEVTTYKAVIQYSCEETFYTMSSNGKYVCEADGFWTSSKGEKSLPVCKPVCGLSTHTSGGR
T1 sequence (Q9JJS8 444-685): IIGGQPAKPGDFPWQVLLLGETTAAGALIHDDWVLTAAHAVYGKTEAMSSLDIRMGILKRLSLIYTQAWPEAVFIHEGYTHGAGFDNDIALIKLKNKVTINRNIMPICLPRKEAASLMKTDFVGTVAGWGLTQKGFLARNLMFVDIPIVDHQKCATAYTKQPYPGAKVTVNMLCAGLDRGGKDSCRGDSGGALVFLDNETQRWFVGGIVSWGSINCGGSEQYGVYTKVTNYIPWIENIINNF
Text: (§1) 4. Biochemical Rat MASP-1 and MASP-2 Assay
(§2) 4.1 Recombinant Expression and Protein Production of Recombinant Human and Rat MASP1 and MASP2 Active Proteases.
(§3) The MASP1 or MASP2 expression vectors were transfected into the HEK293 (ATCC No. CRL-1573) cell line using Lipofectamine LTX® Reagent (Thermo-Fischer), as described by the manufacturer. The mature form of the recombinant rat MASP1 and MASP2 proteases were secreted into the culture medium. The MASP1 and MASP2 proteins were purified from the conditioned media by affinity chromatography on Ni-NTA Superflow resin (Qiagen) as described by the manufacturer.
4.3 Biochemical Rat MASP2 Assay.
Recombinant rat MASP2 enzyme produced in the HEK 293 cells was diluted in the reaction buffer (50 mM HEPES pH 8,0; 100 mM NaCl; 0.01% CHAPS; 0.5 mM Gluthathione) to the concentration of 20 nM and 25 μl was transferred into each single well of 384-well white microtiter plate (Greiner Bio One 781075). 1 μl of the inhibitor compound solution (dissolved in DMSO, at the corresponding concentration) or pure DMSO as a control was added to the same wells. The enzymatic reaction was initiated by addition of 25 μl of 30 μM solution of the FRET substrate Abz-IEGRTSED-(Lys)Dnp-NH2 (SEQ ID NO: 9); (ABZ—2-aminobenzoyl; DNP_2,4-dinitrophenyl; custom synthesis by Jerini Peptide Technologies, Berlin) in the reaction buffer. The microtiter plate was incubated for 60-120 min at the temperature of 32 C. The increase of fluorescence intensity was measured in appropriate fluorescence plate reader (e.g. TECAN Ultra) using excitation wavelength of 320 nm and emission wavelength of 420 nm. IC50 values were calculated from percentage of inhibition of rat […] activity as a function of test compound concentration.

rat MASP1 = biological target: T2, rat MASP1 (Rattus norvegicus, UniProt Q8CHN8); assay: Biochemical rat MASP1 assay (FRET substrate); details: average IC50; recombinant rat MASP1, FRET substrate
T2 construct: Ig-kappa secretion signal (N, cleaved yes); made in house; host or cells: HEK293 (ATCC No. CRL-1573)
T2 sequence (Q8CHN8 302-453 limits assumed): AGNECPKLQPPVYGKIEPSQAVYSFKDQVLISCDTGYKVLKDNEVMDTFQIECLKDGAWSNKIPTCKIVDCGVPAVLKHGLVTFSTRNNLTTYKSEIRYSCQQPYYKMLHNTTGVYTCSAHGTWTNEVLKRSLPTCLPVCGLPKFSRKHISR
T2 sequence (Q8CHN8 454-704 limits assumed): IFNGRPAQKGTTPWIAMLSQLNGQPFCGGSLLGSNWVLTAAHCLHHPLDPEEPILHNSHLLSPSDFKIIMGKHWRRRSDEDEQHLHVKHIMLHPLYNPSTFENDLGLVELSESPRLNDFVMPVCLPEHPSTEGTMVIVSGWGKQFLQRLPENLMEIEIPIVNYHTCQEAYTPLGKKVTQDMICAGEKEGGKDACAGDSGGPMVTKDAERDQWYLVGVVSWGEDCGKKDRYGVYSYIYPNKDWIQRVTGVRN
Text: as §1, §2
A truncated cDNA sequence of rat MASP1 encoding the fragment corresponding to the amino acids 302-704 with an C-terminal His Tag and N-terminal Ig-kappa secretion signal (SEQ ID No: 4) was subcloned into the mammalian expression vector pcDNA3.1 (Invitrogen).
as §3
4.2 Biochemical Rat MASP1 Assay.
Recombinant rat MASP1 enzyme produced in the HEK 293 cells was diluted in the reaction buffer (50 mM HEPES pH 8,0; 100 mM NaCl; 0.01% CHAPS; 0.5 mM Gluthathione) to the concentration of 4 nM and 25 μl was transferred into each single well of 384-well white microtiter plate (Greiner Bio One 781075). 1 μl of the inhibitor compound solution (dissolved in DMSO, at the corresponding concentration) or pure DMSO as a control was added to the same wells. The enzymatic reaction was initiated by addition of 25 μl of 40 μM solution of the FRET substrate Dabcyl-[…]-Glu(Edans)-NH2 (SEQ ID NO: 8); (Dabcyl—4-((4-(dimethylamino)phenyl)azo)benzoic acid; Edans—5-[(2-Aminoethyl) amino]naphthalene-1-sulfonyl; custom synthesis by Jerini Peptide Technologies, Berlin) in the reaction buffer. The microtiter plate was incubated for 60-120 min at the temperature of 32 C. The increase of fluorescence intensity was measured in appropriate fluorescence plate reader (e.g. TECAN Ultra) using excitation wavelength of 340 nm and emission wavelength of 490 nm. IC50 values were calculated from percentage of inhibition of rat […] activity as a function of test compound concentration.

Structure (SMILES) | IC50 (Human C3-[…]) [nM] | IC50 (rat MASP2) [nM] | IC50 (rat MASP1) [nM]
CC[C@H](C)[C@H](NC(=O)CNC)C(=O)N[C@H]1CSSC(C)(C)[C@@H](C(=O)N[C@H](C(=O)N2CCC[C@H]2C(=O)NC[C@H](N)C(=O)O)[C@@H](C)CC)NC(=O)[C@H]([C@@H](C)CC)NC(=O)[C@@H]2C[C@@H]3CCCC[C@@H]3N2C(=O)[C@@H]2CCCN2C(=O)[C@H](CC(C)C)NC(=O)[C@H](CO)NC(=O)[C@H](CCCNC(=N)N)NC(=O)[C@H](CO)NC1=O [Example 467] (H-[Sar]ICSRSLP[Oic]I[Pen]IP-X2; disulfide 3-11) | 41.5 | 70 | 170
CC[C@H](C)[C@H](NC(=O)[C@H](C)NC)C(=O)N[C@H]1CSSC(C)(C)[C@@H](C(=O)N[C@H](C(=O)N2CCC[C@H]2C(N)=O)[C@@H](C)CC)NC(=O)[C@H]([C@@H](C)CC)NC(=O)[C@@H]2C[C@@]3(CN2C(=O)[C@@H]2CCCN2C(=O)[C@@H](CC(C)(C)C)NC(=O)[C@H](CO)NC(=O)[C@H](CCCNC(=N)N)NC(=O)[C@H](CO)NC1=O)CC3(F)F (single isomer, unassigned; enantiomer 1) [Example 443] | 25.2 | 4.7 | 29
CC[C@H](C)[C@H](NC(=O)[C@H](C)N)C(=O)N[C@H]1CSSC[C@@H](C(=O)N[C@H](C(=O)N2CCC[C@H]2C(=O)N[C@@H](CC(=O)O)C(N)=O)[C@@H](C)CC)N(C)C(=O)[C@H]([C@@H](C)CC)NC(=O)[C@@H]2C[C@@H]3CCCC[C@@H]3N2C(=O)[C@@H]2CCCN2C(=O)[C@H](CC(C)C)NC(=O)[C@H](CO)NC(=O)[C@H](CCCNC(=N)N)NC(=O)[C@H](CO)NC1=O [Example 185, AIC+SRSLP-(Oic)-I-((N-Me)C)+IPD-NH2] | 6.74 | 10.9 | 57
[2H][C@@H]1[C@H]([2H])CN2C(=O)[C@H](CC(C)C)NC(=O)[C@H](CO)NC(=O)[C@H](CCCNC(=N)N)NC(=O)[C@H](CO)NC(=O)[C@@H](NC(=O)[C@@H](NC(=O)[C@H](C)N)[C@@H](C)CC)CSSC(C)(C)[C@@H](C(=O)N[C@H](C(=O)N3CCC[C@H]3C(=O)N[C@@H](CC(=O)O)C(=O)O)[C@@H](C)CC)NC(=O)[C@H]([C@@H](C)CC)NC(=O)[C@@H]3C[C@@H]4CCCC[C@@H]4N3C(=O)[C@H]12 [Example 142, N-[(1R,2S,6S,9S,12S,15S,18R,23R,26S,28aS,35aS)-18-[(L-alanyl-L-isoleucyl)amino]-26-[(2S)-butan-2-yl]-12-(3-carbamimidamidopropyl)-9,15-bis(hydroxymethyl)-22,22-dimethyl-6-(2-methylpropyl)-5,8,11,14,17,25,28,35-octaoxo(1,2-^2H2)dotriacontahydro-1H,5H,22H-pyrrolo[2′,1′:13,14][1,2,5,8,11,14,17,20,23,26]dithiaoctaazacyclononacosino[11,10-a]indole-23-carbonyl]-L-isoleucyl-L-prolyl-L-aspartic Acid] | 12.4 | 17.1 | 10.9
CC[C@H](C)[C@H](NC(=O)CNC)C(=O)N[C@H]1CSSC(C)(C)[C@@H](C(=O)N[C@H](C(=O)N2CCC[C@H]2C(N)=O)[C@@H](C)CC)NC(=O)[C@H]([C@@H](C)CC)NC(=O)[C@@H]2C[C@@H]3CCCC[C@@H]3N2C(=O)[C@@H]2CCCN2C(=O)[C@H](CC(C)C)NC(=O)[C@H](CO)NC(=O)[C@H](CCCNC(=N)N)NC(=O)[C@H](CO)NC1=O [Example 109, ((N-Me)G)-IC+SRSLP-(Oic)-I-(Pen)+IP-NH2] (H-[Sar]ICSRSLP[Oic]I[Pen]IP-NH2; disulfide 3-11) | 135 | 42 | 76
CC[C@H](C)[C@H](NC(=O)CNC)C(=O)N[C@H]1CSSC(C)(C)[C@@H](C(=O)N[C@H](C(=O)N2CCC[C@H]2C(=O)N[C@@H](CC(=O)O)C(=O)N[C@@H](CC(=O)O)C(=O)O)[C@@H](C)CC)NC(=O)[C@H]([C@@H](C)CC)NC(=O)[C@@H]2C[C@@H]3CCCC[C@@H]3N2C(=O)[C@@H]2CCCN2C(=O)[C@H](CC(C)C)NC(=O)[C@H](CO)NC(=O)[C@H](CCCNC(=N)N)NC(=O)[C@H](CO)NC1=O [Example 466, ((N-Me)G)-IC+SRSLP-(Oic)-I-(Pen)+IPDD-OH] (H-[Sar]ICSRSLP[Oic]I[Pen]IPDD-OH; disulfide 3-11) | 71.6 | 72 | 17.6
CC[C@H](C)[C@H](NC(=O)CNC)C(=O)N[C@H]1CSSC(C)(C)[C@@H](C(=O)N[C@H](C(=O)N2CCC[C@H]2C(N)=O)[C@@H](C)CC)NC(=O)[C@H]([C@@H](C)CC)NC(=O)[C@@H]2C[C@@H]3CCCC[C@@H]3C2C(=O)[C@@H]2CCCN2C(=O)[C@H](CC(C)C)NC(=O)[C@H](CO)NC(=O)[C@H](CCCNC(=N)N)NC(=O)[C@H](CO)NC1=O (stereo partly drawn) [Example 67, ((N-Me)G)-IC+SRSLP-(Oic)-I-(Pen)+IP-NH2 (HCl Salt)] (H-[Sar]ICSRSL[X1]I[Pen]IP-NH2; disulfide 3-10) | 121 | 36 | 72
